Assay results as given in patent US10597388B2, “Pyridazinone herbicides” (FMC CORPORATION, priority 2014, dated 2020).

Columns and labels:
Format in all cases: in vivo
[1] = test system: oilseed rape (Brassica napus); assay: Test C greenhouse herbicide test, pre- and postemergence
In short: (§1)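 Two application timings: at sowing into a soil/sand blend, and on 2–18 cm seedlings in peat-vermiculite potting mix. A non-phytotoxic, surfactant-containing solvent carried the compounds. Plants were compared with controls and rated visually on 0–100 after 13–15 d.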

[2] = test system: crabgrass, large (large crabgrass, Digitaria sanguinalis); assay: as above
In short: as §1

[3] = test system: oat, wild (wild oat, Avena fatua); assay: Test C greenhouse herbicide test, postemergence
In short: (§2)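 Test chemicals were applied postemergence to greenhouse plants at the 1- to 4-leaf stage (2–18 cm tall) growing in peat/vermiculite medium. After 13–15 d, injury was rated visually against untreated controls on a 0–100 scale (0 = no effect, 100 = complete control).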

[4] = test system: kochia (Kochia scoparia); assay: Test C greenhouse herbicide test, postemergence
In short: as §2

[5] = test system: blackgrass (Alopecurus myosuroides); assay: Test A greenhouse herbicide test, postemergence; conditions: for Plant response rating, Blackgrass: 125 g ai/ha, visual rating after approx. 10 d, 0 to 100 scale (0 no effect, 100 complete control); for Blackgrass plant response rating: 500 g ai/ha, 0 to 100 scale, 0 is no effect, 100 is complete control
In short: (§3)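 Plants grown in loam soil/sand blend pots were treated postemergence at 2 to 10 cm height, one- to two-leaf stage, with formulated test chemicals. After approximately 10 d in a greenhouse, injury was rated visually against untreated controls on a 0 to 100 scale (0 no effect, 100 complete control).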

[6] = test system: galium (catchweed bedstraw, Galium aparine); assay: Test A greenhouse herbicide test, postemergence; conditions: for Plant response rating, Galium: 125 g ai/ha, visual rating after approx. 10 d, 0 to 100 scale (0 no effect, 100 complete control); for Galium plant response rating: 500 g ai/ha, 0 to 100 scale, 0 is no effect, 100 is complete control
In short: as §3

[7] = test system: pigweed (Amaranthus retroflexus); assay: Test A greenhouse herbicide test, pre- and postemergence
In short: (§4)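 Seeds sown in loam–sand blend got a preemergence directed soil spray of compound in non-phytotoxic solvent with surfactant. Postemergence treatment was given at 2–10 cm, one- to two-leaf stage. After ~10 d in greenhouse, injury was rated visually vs untreated controls, 0 (no effect) to 100 (complete control).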

[8] = test system: ragweed (common ragweed, Ambrosia elatior); assay: as above
In short: as §4

[9] = test system: wheat (Triticum aestivum); assay: as above; conditions: Postemergence; for Plant response rating, Wheat: 125 g ai/ha, 0 to 100 scale where 0 is no effect and 100 is complete control; for Wheat plant response rating: 500 g ai/ha, 0 to 100 scale, 0 is no effect, 100 is complete control
In short: as §4

[10] = test system: kochia (Kochia scoparia); assay: as above
In short: as §4

[11] = test system: barnyardgrass (Echinochloa crus-galli); assay: as above
In short: as §4

[12] = test system: corn (Zea mays); assay: as above; conditions: Postemergence; for Plant response rating, Corn: 125 g ai/ha, visual rating after approx. 10 d, 0 to 100 scale (0 no effect, 100 complete control); for Corn plant response rating: 500 g ai/ha, 0 to 100 scale, 0 is no effect, 100 is complete control
In short: as §4

[13] = Postemergence, 31 g ai/ha, 0 to 100 scale (0 no effect, 100 complete control)
[14] = Postemergence, 125 g ai/ha, scale 0 to 100, 0 is no effect, 100 is complete control
[15] = Postemergence, 250 g ai/ha, scale 0 to 100, 0 no effect, 100 complete control, 13 to 15 d
[16] = Preemergence, 31 g ai/ha, scale 0 to 100, 0 is no effect, 100 is complete control
[17] = Preemergence, 62 g ai/ha, scale 0 to 100, 0 is no effect, 100 is complete control
[18] = Preemergence, 125 g ai/ha, scale 0 to 100, 0 is no effect, 100 is complete control
[19] = Preemergence, 250 g ai/ha, scale 0 to 100 (0 no effect, 100 complete control)
[20] = postemergence, 62 g ai/ha, scale 0 to 100, 0 no effect, 100 complete control
[21] = Postemergence, 125 g ai/ha, visual rating after approx. 10 d, 0 to 100 scale (0 no effect, 100 complete control)
[22] = Postemergence, 500 g ai/ha, 0 to 100 scale, 0 is no effect, 100 is complete control
[23] = Preemergence, 125 g ai/ha, 0 to 100 scale where 0 is no effect and 100 is complete control
[24] = Preemergence, 500 g ai/ha, 0 to 100 scale, 0 no effect, 100 complete control

## CCC(=O)Oc1c(C)nn(C)c(=O)c1-c1c(C)sc2c(C)cc(C)cc12 [Compound 28]
[1]; [13]
  Oilseed Rape plant response rating: 5
[1]; [14]
  Plant response rating, Oilseed Rape: 5
[1]; [15]
  Plant response rating, Oilseed Rape: 70
[1]; [16]
  Plant response rating, Oilseed Rape: 0
[1]; [17]
  Plant response rating, Oilseed Rape: 20
[1]; [18]
  Plant response rating, Oilseed Rape: 85
[1]; [19]
  Oilseed Rape plant response rating: 90
[1]; [20]
  Oilseed Rape plant response rating: 60
[2]; [13]
  Crabgrass, Large plant response rating: 25
[2]; [14]
  Plant response rating, Crabgrass, Large: 40
[2]; [15]
  Plant response rating, Crabgrass, Large: 45
[2]; [16]
  Plant response rating, Crabgrass, Large: 25
[2]; [17]
  Plant response rating, Crabgrass, Large: 60
[2]; [18]
  Plant response rating, Crabgrass, Large: 80
[2]; [19]
  Crabgrass, Large plant response rating: 85
[2]; [20]
  Crabgrass, Large plant response rating: 20
[3]; [13]
  Oat, Wild plant response rating: 95
[3]; [14]
  Plant response rating, Oat, Wild: 100
[3]; [15]
  Plant response rating, Oat, Wild: 100
[3]; [20]
  Oat, Wild plant response rating: 95
[4]; [13]
  Kochia plant response rating: 70
[4]; [14]
  Plant response rating, Kochia: 95
[4]; [15]
  Plant response rating, Kochia: 100
[4]; [20]
  Kochia plant response rating: 70
[5]
  Plant response rating, Blackgrass: 90
  Blackgrass plant response rating: 90
[6]
  Plant response rating, Galium: 100
  Galium plant response rating: 100
[7]; [21]
  Plant response rating, Pigweed: 90
[7]; [22]
  Pigweed plant response rating: 90
[7]; [23]
  Pigweed plant response rating: 100
[7]; [24]
  Plant response rating, Pigweed: 100
[8]; [21]
  Plant response rating, Ragweed: 80
[8]; [22]
  Ragweed plant response rating: 100
[8]; [23]
  Ragweed plant response rating: 90
[8]; [24]
  Plant response rating, Ragweed: 90
[9]
  Plant response rating, Wheat: 0
  Wheat plant response rating: 0
[10]; [21]
  Plant response rating, Kochia: 70
[10]; [22]
  Kochia plant response rating: 90
[10]; [23]
  Kochia plant response rating: 50
[10]; [24]
  Plant response rating, Kochia: 90
[11]; [21]
  Plant response rating, Barnyardgrass: 80
[11]; [22]
  Barnyardgrass plant response rating: 90
[11]; [23]
  Barnyardgrass plant response rating: 90
[11]; [24]
  Plant response rating, Barnyardgrass: 90
[12]
  Plant response rating, Corn: 0
  Corn plant response rating: 20

## COc1nn(C)c(=O)c(-c2c(C)sc3ccccc23)c1O [Compound 33]
[1]; [13]
  Oilseed Rape plant response rating: 40
[1]; [14]
  Plant response rating, Oilseed Rape: 30
[1]; [15]
  Plant response rating, Oilseed Rape: 50
[1]; [20]
  Oilseed Rape plant response rating: 55
[2]; [13]
  Crabgrass, Large plant response rating: 10
[2]; [14]
  Plant response rating, Crabgrass, Large: 20
[2]; [15]
  Plant response rating, Crabgrass, Large: 25
[2]; [20]
  Crabgrass, Large plant response rating: 20
[3]; [13]
  Oat, Wild plant response rating: 35
[3]; [14]
  Plant response rating, Oat, Wild: 40
[3]; [15]
  Plant response rating, Oat, Wild: 45
[3]; [20]
  Oat, Wild plant response rating: 30
[4]; [13]
  Kochia plant response rating: 20
[4]; [14]
  Plant response rating, Kochia: 40
[4]; [15]
  Plant response rating, Kochia: 50
[4]; [20]
  Kochia plant response rating: 5
[5]
  Plant response rating, Blackgrass: 10
  Blackgrass plant response rating: 40
[6]
  Plant response rating, Galium: 90
  Galium plant response rating: 100
[7]; [21]
  Plant response rating, Pigweed: 40
[7]; [22]
  Pigweed plant response rating: 70
[7]; [23]
  Pigweed plant response rating: 20
[7]; [24]
  Plant response rating, Pigweed: 20
[8]; [21]
  Plant response rating, Ragweed: 90
[8]; [22]
  Ragweed plant response rating: 90
[8]; [23]
  Ragweed plant response rating: 80
[8]; [24]
  Plant response rating, Ragweed: 100
[9]
  Plant response rating, Wheat: 0
  Wheat plant response rating: 0
[10]; [21]
  Plant response rating, Kochia: 90
[10]; [22]
  Kochia plant response rating: 100
[10]; [23]
  Kochia plant response rating: 30
[10]; [24]
  Plant response rating, Kochia: 80
[11]; [21]
  Plant response rating, Barnyardgrass: 40
[11]; [22]
  Barnyardgrass plant response rating: 90
[11]; [23]
  Barnyardgrass plant response rating: 20
[11]; [24]
  Plant response rating, Barnyardgrass: 90
[12]
  Plant response rating, Corn: 0
  Corn plant response rating: 10
